Source: ChEMBL document CHEMBL1149991, “Benzofuran based angiotensin II antagonists related to GR117289: enhancement of potency in vitro and oral activity” (Bioorg Med Chem Lett, 1993)

Molecular target: T1, Type-1 angiotensin II receptor (Oryctolagus cuniculus) (UniProt P34976)
T1 sequence (whole entry): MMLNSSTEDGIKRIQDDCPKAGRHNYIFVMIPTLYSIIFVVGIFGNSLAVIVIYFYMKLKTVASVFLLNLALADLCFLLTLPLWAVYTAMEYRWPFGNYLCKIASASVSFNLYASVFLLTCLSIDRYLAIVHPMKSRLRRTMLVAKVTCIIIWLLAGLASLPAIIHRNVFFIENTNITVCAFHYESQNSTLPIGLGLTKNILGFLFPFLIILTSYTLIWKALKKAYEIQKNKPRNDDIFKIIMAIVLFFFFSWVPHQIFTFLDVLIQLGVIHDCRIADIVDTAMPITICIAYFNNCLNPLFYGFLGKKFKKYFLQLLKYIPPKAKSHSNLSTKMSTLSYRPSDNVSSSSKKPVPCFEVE
Test: In vitro for its antagonistic activity against angiotensin II type 1 receptor in Rabbit Aorta
Type: functional, tissue-based

pKB | SMILES
9 | CCCCc1nc(Cl)c(C(N)=O)n1Cc1ccc2oc(-c3ccccc3-c3nn[nH]n3)c(Br)c2c1
8.3 | CCCCc1nc(Cl)c(C(=O)OCC)n1Cc1ccc2oc(-c3ccccc3-c3nn[nH]n3)c(Br)c2c1
8.8 | CCCCc1nc(Cl)c(C(=O)O)n1Cc1ccc2oc(-c3ccccc3C(=O)Nc3nn[nH]n3)c(Br)c2c1
7.3 | CCCCc1nc(Cl)c(C(=O)O)n1Cc1ccc2oc(-c3ccccc3-c3nnnn3C)c(Br)c2c1
< 6 | CCCCc1nc(Cl)c(C(=O)O)n1Cc1ccc2oc(-c3ccccc3C#N)c(Br)c2c1
6.4 | CCCCc1nc(Cl)c(C(=O)O)n1Cc1ccc2oc(-c3ccccc3-c3nnn(C)n3)c(Br)c2c1
7.2 | CCCCc1nc(Cl)c(C(=O)O)n1Cc1ccc2oc(-c3ccccc3C(N)=O)c(Br)c2c1
10 | CCCCc1nc(Cl)c(C(=O)O)n1Cc1ccc2oc(-c3ccccc3-c3nn[nH]n3)c(C(F)(F)F)c2c1
7.8 | CCCCc1nc(Cl)c(C(=O)O)n1Cc1ccc2oc(-c3ccccc3NS(=O)(=O)C(F)(F)F)c(Br)c2c1
8.8 | CCCCc1nc(Cl)c(CNC(N)=O)n1Cc1ccc2oc(-c3ccccc3-c3nn[nH]n3)c(Br)c2c1
8.3 | CCCCc1nc(Cl)c(C(=O)O)n1Cc1ccc2oc(-c3ccccc3-c3nn[nH]n3)c(C(C)(C)C)c2c1
10.5 | CCCCc1nc(Cl)c(C(=O)O)n1Cc1ccc2oc(-c3ccccc3-c3nn[nH]n3)c(Cl)c2c1
9.8 | CCCCc1nc(Cl)c(CC(=O)O)n1Cc1ccc2oc(-c3ccccc3-c3nn[nH]n3)c(Br)c2c1
8.8 | CCCCc1nc(Cl)c(C(=O)N(C)C)n1Cc1ccc2oc(-c3ccccc3-c3nn[nH]n3)c(Br)c2c1
7.8 | CCCCc1nc(Cl)c(C(=O)O)n1Cc1ccc2oc(-c3ccccc3C(=O)OCC)c(Br)c2c1
9.6 | CCCCc1nc(Cl)c(C(=O)O)n1Cc1ccc2oc(-c3ccccc3-c3nn[nH]n3)c(OC)c2c1
9.2 | CCCCc1nc(Cl)c(C(=O)NC)n1Cc1ccc2oc(-c3ccccc3-c3nn[nH]n3)c(Br)c2c1
